Experimental data as given in PubChem BioAssay (NCI).
Values joined by “and” are separate entries in the source; they are usually repeats but may differ in a detail not shown here. Equal entries are not always repeated.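 Test compounds were applied to cells in 96-well plates for 48 hours at 5 doses. GI50: concentration for 50% inhibition of growth. TGI denotes the concentration required for complete inhibition of growth.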

Tests used:
Assay in all cases: inhibition of tumour cell growth, NCI panel, 48 h
SK-OV-3 ovarian = tested on: SK-OV-3 ovarian
786-0 renal = tested on: 786-0 renal
SW-620 colon = tested on: SW-620 colon
CAKI-1 renal = tested on: CAKI-1 renal
U251 CNS = tested on: U251 CNS
SR leukemia = tested on: SR leukemia
NCI/ADR-RES ovarian = tested on: NCI/ADR-RES ovarian
NCI-H522 lung = tested on: NCI-H522 lung
OVCAR-3 ovarian = tested on: OVCAR-3 ovarian
M14 melanoma = tested on: M14 melanoma

SMILES	GI50 (SK-OV-3 ovarian)	TGI (SK-OV-3 ovarian)	GI50 (786-0 renal)	TGI (786-0 renal)	GI50 (SW-620 colon)	TGI (SW-620 colon)	GI50 (CAKI-1 renal)	TGI (CAKI-1 renal)	GI50 (U251 CNS)	TGI (U251 CNS)	GI50 (SR leukemia)	TGI (SR leukemia)	GI50 (NCI/ADR-RES ovarian)	TGI (NCI/ADR-RES ovarian)	GI50 (NCI-H522 lung)	TGI (NCI-H522 lung)	TGI (OVCAR-3 ovarian)	TGI (M14 melanoma)	GI50 (OVCAR-3 ovarian)	GI50 (M14 melanoma)
CC(=O)N[C@@H]1CCC[C@H](C(=O)Nc2cc(-c3cnn4c3CC(C)(C)C4)c(Cl)cn2)C1	0.0633 µM	> 100 µM	< 0.01 µM	29.6 µM	< 0.01 µM	> 100 µM	< 0.01 µM	> 100 µM	< 0.01 µM	> 100 µM	< 0.01 µM	1.21 µM	0.199 µM	> 100 µM	0.013 µM	0.0588 µM	–	–	–	–
Cc1cccc(CC(C)(C)C)c1NC(=O)C(=O)C(C(=O)c1ccc2ccccc2c1)C1OC(=O)c2ccccc21 (configuration not stated)	–	> 100 µM	–	21.7 µM	–	38.7 µM	–	> 100 µM	–	17.8 µM	–	> 100 µM	–	–	–	26.7 µM	> 100 µM	> 100 µM	–	–
CCC1NCC(=O)c2c1[nH]c1ccccc21 (configuration not stated)	–	> 100 µM	–	> 100 µM	–	> 100 µM	–	> 100 µM	–	> 100 µM	–	> 100 µM	–	–	–	> 100 µM	> 100 µM	> 100 µM	–	–
OCCCCC#Cc1ccccc1C#Cc1cnccn1	46.3 µM	> 100 µM	34.7 µM	> 100 µM	62.6 µM	> 100 µM	26.4 µM	> 100 µM	37.8 µM	> 100 µM	28.1 µM	> 100 µM	25.1 µM	92.2 µM	24.5 µM	63.7 µM	> 100 µM	–	31.3 µM	–
CCCCCCCCC(=O)NCCCNCCCNC(=O)CCCCCCCC	–	29.2 µM	–	3.52 µM	–	7.3 µM	–	27.7 µM	–	8.92 µM	–	5.81 µM	–	–	–	18.8 µM	30.5 µM	4.15 µM	–	–
Cc1ns/c(=N\C(=S)N(C)C)n1C	–	> 100 µM	–	> 100 µM	–	> 100 µM	–	> 100 µM	–	> 100 µM	–	> 100 µM	–	–	–	> 100 µM	–	> 100 µM	–	–
Cc1cc(N)c2ccccc2[n+]1CCCCCCCCCC[n+]1c(C)cc(N)c2ccccc21	–	–	0.512 µM and 3.75 µM	10.9 µM and 21.3 µM and 25.5 µM	0.508 µM	> 50 µM and 33.9 µM and > 100 µM	1.37 µM and 3.27 µM	> 50 µM and 27.7 µM and 18.6 µM	0.145 µM and 1.15 µM	1.05 µM and 1.94 µM and 6.52 µM	0.151 µM and 1.07 µM	0.656 µM and 3.95 µM and 4.37 µM	5.42 µM and 13.2 µM	> 38.5 µM and 48.5 µM and 42.9 µM	1.38 µM	4.01 µM and 4.43 µM	–	3.25 µM and 18.5 µM and 7.33 µM	–	0.584 µM
Cc1[nH]c(=O)nc(N/N=C/c2ccc(O)cc2)c1C(=O)Nc1ccc(Cl)cc1	–	> 100 µM	–	> 100 µM	–	> 100 µM	–	> 100 µM	–	> 100 µM	–	> 100 µM	–	–	–	> 100 µM	> 100 µM	> 100 µM	–	–
O=C1c2ccccc2C(=O)c2c1ccc1c3ccccc3n(Cc3ccccc3)c21	–	> 100 µM	–	> 100 µM	–	> 100 µM	–	> 100 µM	–	–	–	> 100 µM	–	–	–	> 100 µM	> 100 µM	> 100 µM	–	–
COc1cc(C(=O)/C=C/c2c(C(F)(F)F)nc3sccn23)cc(OC)c1OC	2.87 µM	8.99 µM	1.76 µM	3.16 µM	1.67 µM	3.56 µM	1.76 µM	5.31 µM	1.38 µM	2.79 µM	0.54 µM	3.61 µM	–	–	2.03 µM	4.91 µM	3.4 µM	–	1.86 µM	–
Fc1nc(F)nc(-c2c3ccccc3c3n2CCS3)n1	–	> 100 µM	–	> 100 µM	–	> 100 µM	–	> 100 µM	–	92.7 µM	–	> 100 µM	–	–	–	> 100 µM	> 100 µM	> 100 µM	–	–
O=C(CN=Cc1cccs1)CSC(c1ccccc1)c1ccccc1	16.3 µM	58.2 µM	34 µM	> 100 µM	29.8 µM	> 100 µM	24.9 µM	67.1 µM	34.5 µM	> 100 µM	17.1 µM	54.1 µM	24.9 µM	88.8 µM	–	–	48.1 µM	55.5 µM	17.6 µM	22 µM
O=c1c2cc(F)ccc2sc2c(NCCCN3CCCC3)nc3ccccc3c12	2.35 µM	7.79 µM	1.61 µM	3.08 µM	–	–	1.48 µM	2.95 µM	1.81 µM	3.62 µM	2.75 µM	6.51 µM	1.99 µM	4.49 µM	1.97 µM	3.96 µM	4.72 µM	3.47 µM	2.07 µM	1.86 µM
O=C(CC(C(=O)O)N1CCOCC1)c1ccccc1 (configuration not stated)	–	> 100 µM	–	30.1 µM	–	44.1 µM	–	–	–	30.9 µM	–	35.5 µM	–	> 100 µM	–	> 100 µM	35.7 µM	30.8 µM	–	–
C#Cc1cccc(Nc2ncnc3ccc(-c4cncc(NS(C)(=O)=O)c4)cc23)c1	1.89 µM	5.71 µM	1.77 µM	6.74 µM	2.36 µM	6.31 µM	–	–	2.5 µM	10.3 µM	1.37 µM	5.74 µM	21.7 µM	> 100 µM	1.06 µM	3.28 µM	3.25 µM	11.2 µM	1.15 µM	2.33 µM
CCCCCCCCCCCCCCCC(=O)N[C@H]1CCc2cc(OC)c(OC)c(OC)c2-c2ccc(SC)c(=O)cc21	–	6.19 µM	3.31 µM	8.24 µM and 12.9 µM	2.1 µM	15.6 µM and 10.8 µM	6.7 µM	80 µM and 21.8 µM	2.64 µM	8.6 µM and 9.32 µM	0.597 µM	8.28 µM and 13.2 µM	–	–	–	–	0.642 µM and 3.01 µM	2.86 µM and 1.89 µM	0.53 µM	0.386 µM
COc1ccccc1NC(=O)C(=O)C1C(=O)Nc2ccccc2S1=O (configuration not stated)	–	> 100 µM	–	> 100 µM	–	> 100 µM	–	> 100 µM	–	> 100 µM	–	> 100 µM	–	–	–	> 100 µM	> 100 µM	> 100 µM	–	–
COc1ccc(N(Cc2cc(OC)c(OC)c(OC)c2)C2OC(=O)c3ccccc32)cc1 (configuration not stated)	1.23 µM	> 100 µM	0.701 µM	> 100 µM	0.374 µM	> 100 µM	0.532 µM	> 100 µM	0.385 µM	> 34.7 µM	0.456 µM	> 100 µM	–	–	0.286 µM	3.11 µM	1.98 µM	> 100 µM	0.368 µM	0.39 µM
